Experimental data from patent US20240358837A1, “Amorphous Photosensitizing Particles, Methods For The Preparation Thereof, And Methods For The Use Thereof” (priority 2021, published 2024).

Assays:
[1] = Fluorescence self-quenching (fluorescence in DMSO divided by fluorescence in PBS); type: physicochemical; details: 0.625-5 μM
Experimental: The stability of NanoVP particles in PBS at 4° C. was determined by monitoring their hydrodynamic size and polydispersity index using a particle sizer analyzer for up to one year. NanoVP singlet oxygen (^1O2) generation, self-quenching, and drug release were studied in 96-well plates as described previously. NanoVP and singlet oxygen sensor green (SOSG) at 5 μM were mixed and irradiated with 690 nm light (10 J/cm^2, 10 mW/cm^2; ML6600, Modulight). A multi-mode microplate reader (Synergy Neo2, BioTek) acquired fluorescence signals of VP (Excitation/Emission: 435/650-750 nm) or SOSG (Excitation/Emission: 504/525 nm) before and after light irradiation. Self-quenching (FDSMO/FO) is defined as the fluorescence after disruption of the NanoVP using DMSO (FDSMO) divided by the fluorescence of the NanoVP in PBS (FO). Photosensitizer release from NanoVP (de-quenching) was studied by monitoring the gain in VP fluorescence signal in PBS/DMSO buffer (0-100% v/v) at room temperature or in Eagle's Minimum Essential Medium (EMEM, Cellgro) with 0-10% v/v fetal bovine serum (FBS, Gibco) at 37° C.
Fluorescence photoactivity was defined as the maximal fluorescence intensity (FL) of NC-VP and L-VP in PBS divided by the maximal fluorescence intensity (FL) of NC-VP and L-VP in DMSO. The absorbance spectrums of the constructs over the visible spectrum were determined in PBS and DMSO. […]

U87 cells = assay: PDT cell viability (MTT assay) in U87 cells; type: cell-based, human; details: MTT 24 hours after PDT, 0-5 J/cm^2, 10 mW/cm^2
Experimental: Cells were cultured overnight in a 35-mm Petri dish or 96-well black wall plates (1-3.3×10^4 cells/cm^2) and then incubated with photosensitizers (i.e., NanoVP, free-form VP, or Liposomal VP; 0.25 μM) for 24 hours. Subsequently, cells were washed twice with PBS and incubated with a photosensitizer free complete medium. Photosensitizer uptake in cells was determined using extraction methods followed by VP fluorescence measurements (Excitation/Emission: 435/700±10 nm, Synergy Neo2, BioTek) or visualized using fluorescence imaging (Lionheart, BioTek) as described previously. PDT was performed by exposing the cells to 690 nm light (0-10 J/cm^2, […], bottom illumination; ML6600, Modulight).
(§1) At 24 hours after PDT, cell viability was determined using MTT [3-(4,5-dimethylthiazol-2-yl)-2,5-diphenyltetrazolium bromide] assay or neutral red assay (Abcam) following the vendor's protocol. For dark toxicity evaluation, cells were incubated with media containing photosensitizers (0-40 μM) for 72 hours, followed by the MTT assay. The photosensitizer efflux by ATP binding cassette (ABC) transporters was studied in MCF-7 and its multi-drug resistant sublines (MCF-7 TX400 and MCF-7 MX100) by adapting the protocols described herein.

caspase 3 in U87 cells = assay: Total and cleaved caspase 3 immunoblotting after PDT; type: cell-based, human; details: one-hour post light activation
Experimental: Expressions of total and cleaved caspase 3 were examined by immunoblotting techniques. U87 cells were plated in a 35-mm Petri dish (Falcon) at a density of 2.2×10^4 cells/cm^2. Cells were incubated with 0.25 μM of NanoVP, free-form VP, or Liposomal VP for 24 hours. Cells were washed twice with PBS and irradiated with 690-nm light (10 J/cm^2, 50 mW/cm^2) in a fresh culture medium. At 1 hour after PDT, cell lysates were collected in radioimmunoprecipitation assay (RIPA) buffer supplemented with a 1% protease inhibitor. Protein lysates (22 μg) were separated on a 4-12% precast Bis-Tris gel (NuPAGE) and transferred onto a nitrocellulose membrane. After blocking with Odyssey blocking buffer (Li-COR) for 1 hour, blots were incubated with primary antibody against beta-actin (#3700, cell signaling), caspase 3 (#9662, Cell Signaling,), or cleaved caspase 3 (#9661, Cell Signaling) overnight at 4° C. Blots were washed with 1X Tris-buffered Saline, 0.1% Tween® 20 Detergent (TBST) buffer followed by incubation with IRDye 680RD goat anti-mouse secondary antibody (926-68070, Li-COR) or IRDye 800CW goat anti-rabbit secondary antibody (926-32211, Li-COR) for 1 hour at room temperature based on the supplier's advice. Visualization of protein bands was developed using the LiCor ODYSSEY CLx (Li-COR). β-actin serviced as a loading control. Band intensity was determined using LiCOR ODYSSEY CLx software. PDT-treated samples were normalized to a no-treatment control.

U87 cancer cells = assay: Lysosomal damage (neutral red uptake assay) after PDT; type: cell-based, human; details: 690 nm, 1 J/cm^2, 50 mW/cm^2; 0.25 μM
Experimental: as §1

blood-brain barrier = assay: Photodynamic opening of the blood-brain barrier (Evans blue) in rats; type: in vivo, rat; details: low-dose PDT, 80 J/cm^2, 85 mW/cm^2
Experimental: Sprague-Dawley rats (4-5 weeks old, Envigo) received an intravenous injection of NanoVP (0.25 or 0.5 mg/kg) or 5-aminolevulinic acid (5-ALA, 20 or 125 mg/kg) at 30 min or 4 hours before PDT. PDT parameters, including photosensitizer concentration, drug-light interval, irradiance, and radiant exposure, were selected. At 30 minutes post-photosensitizer injection, rats were anesthetized with isoflurane and secured within a stereotaxic frame.
During the 30-minute drug-light interval, a craniotomy was performed. The top of the rat head was shaved, and the skin was removed. The periosteum was retracted to the edges of the skull. Using a micro drill (OmniDrill35, WPI), a circle about 4 mm in diameter was sketched into the right parietal bone. Drilling was stopped periodically, and PBS was applied to prevent heating. […]
PDT was performed by light activation of the exposed brain (NanoVP: 690 nm, 80 or 100 J/cm^2; 5-ALA: 635 nm, 60 or 80 J/cm^2; 40 or 85 mW/cm^2; ML6600, Modulight). At 90 minutes post-PDT, rats received an intravenous injection of Evans blue dye (2%, 4 mL/kg) to determine the blood-brain barrier integrity using imaging and extraction methods In particular, Evans blue was quantified. […] Samples were centrifuged to pellet the tissue, and the optical density of Evans blue within the supernatant at 610 nm was measured on a multi-mode microplate reader. […]

[2] = non-tumor-bearing animals, 125 mg/kg 5-ALA and 54 J, within 5 days of treatment; cited from earlier work

Compound | fluorescence self-quenching [1] | half maximal inhibition concentration (IC50) of PDT (U87 cells) | cleaved-to-total caspase-3 ratio (caspase 3 in U87 cells) | reduction of total (pro) caspase-3 expression (caspase 3 in U87 cells) | increase in cleaved caspase-3 formation (caspase 3 in U87 cells; 10 J/cm^2, 50 mW/cm^2) | lysosomal integrity (U87 cancer cells) | depth at which extravasated Evan Blue is visible in rat brain (blood-brain barrier) | mortality [2]
verteporfin [free-form VP] | up to 78 fold | 0.20 μM×J/cm^2 | ~4.4 | ~50% | ~2.4 fold | does not affect lysosomal integrity | – | –
NCC(=O)CCC(=O)O [5-ALA, 5-aminolevulinic acid] | – | – | – | – | – | – | up to 1 mm | 50%
